Where “and” joins values, the source holds several entries; their conditions need not be identical. Equal values may be shown once. Where a SMILES comes first, the peptide text is derived from it.
Legend:
[1] = target: PDI (Homo sapiens, UniProt P07237); conditions: insulin reduction assay, reported in the literature; cited from earlier work
[2] = target: T1, Protein disulfide isomerase (PDI) from bovine liver (Bos taurus, UniProt P05307); assay: High-throughput turbidometric assay of PDI-catalyzed insulin reduction (OD650, H2O2 stop); assay type: biochemical
T1 construct: Protein disulfide isomerase (PDI) from bovine liver (Catalog number P3818); purchased Sigma P3818; host or cells: bovine liver (tissue-derived enzyme)
T1 sequence (P05307 21-510): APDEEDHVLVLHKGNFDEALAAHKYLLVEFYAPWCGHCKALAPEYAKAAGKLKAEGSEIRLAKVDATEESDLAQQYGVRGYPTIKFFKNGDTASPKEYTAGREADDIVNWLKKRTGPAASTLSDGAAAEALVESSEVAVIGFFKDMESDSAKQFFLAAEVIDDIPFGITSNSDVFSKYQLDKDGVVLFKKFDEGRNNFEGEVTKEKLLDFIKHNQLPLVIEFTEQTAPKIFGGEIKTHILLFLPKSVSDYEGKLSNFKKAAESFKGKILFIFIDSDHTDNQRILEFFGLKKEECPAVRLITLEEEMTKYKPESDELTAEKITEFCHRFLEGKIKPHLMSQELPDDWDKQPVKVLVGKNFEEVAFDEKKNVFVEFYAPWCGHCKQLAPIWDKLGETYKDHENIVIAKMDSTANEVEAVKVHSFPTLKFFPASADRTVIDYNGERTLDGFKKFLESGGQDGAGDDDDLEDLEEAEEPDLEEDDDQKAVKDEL
Procedure: Protein disulfide isomerase (PDI) from bovine liver (Catalog number P3818), insulin from bovine pancreas (Catalog number 14011), dithiothreitol (Catalog number D9779), H2O2 (Catalog number H6520) and bacitracin (Catalog number B0125) were purchased from Sigma. A stock solution of 1.6 mM insulin was prepared by dissolving insulin in 0.1 N HCl. Clear polystyrene 384-well assay plates were obtained from Greiner (Catalog number 781101). All reagents used in this study were of analytical grade.
The assay utilized the method according to Bonfils (1998) Eur J Biochem 254:420–427, but was miniaturized in 384-well plates. The assay buffer consisted of 100 mM potassium phosphate and 0.2 mM EDTA, pH 7.0. In a standard room temperature assay, insulin from a 1.6 mM stock solution and PDI from a 5 mg/mL stock were added to final concentrations of 0.16 mM and 33 ug/mL in assay buffer, respectively. Aliquots of the reaction mixture were then added at 30 μL per well to 384-well assay plates. To initiate the reaction, 5 μL of 7 mM dithiothreitol (final concentration 1 mM) was added and quickly mixed. The enzyme reaction was monitored at 650 nm on a SpectraMax Plus plate reader (Molecular Devices, Sunnyvale, Calif.).
For high-throughput screening, a Biomek 2000 liquid handling system (Beckman-Coulter, Palo Alto, Calif.) was used to add 5 μL of 1 M positive control H2O2 to each well in column 24 of the assay plates. Then a Biomek FX384 pipettor (Beckman-Coulter, Palo Alto, Calif.) was programmed to automate the subsequent additions. The pipettor aspirated 29 μL of the enzyme/substrate mixture, applied a 0.5-μL air gap, dipped into DMSO to wash the pipette tip exterior, pipetted 1 μL of 300 μM compound, and then dispensed the entire volume into the assay plate. After the dispense step, the compound was mixed well with the enzyme and substrate. Following a 10 min pre-incubation, 5 μL of 7 mM dithiothreitol was dispensed into the reaction wells. This was followed immediately by a mixing step, in which 20 μL of the mixture was aspirated and dispensed twice in the well. The reaction was allowed to proceed for 30 min and stopped by adding 5 μL of 1 M H2O2 (final concentration 125 mM) to each well. The optical density of each well was measured at 650 nm on the SpectraMax Plus plate reader.
For data analysis, the results are presented as mean±standard deviation. Dose-response curves were fitted by least square regression using Prism (version 3.03). The Z′ factor was calculated according to Zhang et al. (1999) J Biomol Screen 4:67–73.

Sequence of PDI (P07237 18-508, species assumed): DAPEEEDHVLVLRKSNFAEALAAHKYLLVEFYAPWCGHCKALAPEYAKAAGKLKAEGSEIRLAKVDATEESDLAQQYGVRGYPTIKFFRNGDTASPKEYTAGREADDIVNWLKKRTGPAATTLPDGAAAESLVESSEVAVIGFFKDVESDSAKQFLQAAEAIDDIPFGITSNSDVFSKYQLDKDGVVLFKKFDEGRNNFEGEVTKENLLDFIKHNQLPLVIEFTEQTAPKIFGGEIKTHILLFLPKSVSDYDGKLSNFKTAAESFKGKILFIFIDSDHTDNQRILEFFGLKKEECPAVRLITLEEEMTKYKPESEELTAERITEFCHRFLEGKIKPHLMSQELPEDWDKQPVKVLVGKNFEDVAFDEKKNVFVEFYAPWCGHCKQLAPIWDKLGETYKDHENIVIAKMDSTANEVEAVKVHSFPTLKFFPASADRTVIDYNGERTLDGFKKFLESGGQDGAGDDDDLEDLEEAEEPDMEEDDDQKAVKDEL

behaviour as stop reagent ([2]; 2 mM bacitracin added 30 min after initiation of the reaction): slow inhibitor
Hill slope ([2]; dose-response curve, non-linear regression): 1.2±0.2 and 1.2
IC50 ([2]; inhibitor incubated with enzyme and insulin 10 minutes prior to initiation with dithiothreitol, dose-response): 152 ± 25 µM
SMILES: CC[C@H](C)[C@H](N)C1=N[C@H](C(=O)N[C@@H](CC(C)C)C(=O)N[C@H](CCC(=O)O)C(=O)N[C@H](C(=O)N[C@H]2CCCCNC(=O)[C@H](CC(N)=O)NC(=O)[C@@H](CC(=O)O)NC(=O)[C@H](Cc3cnc[nH]3)NC(=O)[C@@H](Cc3ccccc3)NC(=O)[C@H]([C@@H](C)CC)NC(=O)[C@@H](CCCN)NC2=O)[C@@H](C)CC)CS1 [bacitracin] (HELM PEPTIDE1{[CC[C@H](C)[C@H](N)C1=N[C@H](C(=O)[*:2])CS1].L.[dE].I.K.[NCCC[C@@H](N[*:1])C(=O)[*:2]].I.[dF].H.[dD].N}$PEPTIDE1,PEPTIDE1,5:R3-11:R2$$$V2.0)
IC50 [1]: ~200 µM
inhibition of the enzyme reaction ([2]; bacitracin incubated with the enzyme prior to the addition of dithiothreitol): dramatically inhibited the enzyme reaction
